Data from publication PMC9925730, “Controlled sequential in situ self-assembly and disassembly of a fluorogenic cisplatin prodrug for cancer theranostics” (Nature Communications, 2023).

Key:
[1] = NIR FL, PA and absorption signals of Pt^IVNPs in solution in response to GSH; conditions: P-CyPt 10 μM
Protocol: To monitor the NIR FL and PA imaging signals of P-CyPt in response to ALP, P-CyPt (10 μM) in Tris buffer (1 mL) was incubated with ALP (100 U/L) at 37 °C for 0, 5, 10, 15, 20, and 30 min. To monitor the NIR FL and PA imaging signals of Pt^IVNPs in response to GSH, P-CyPt (10 μM) in Tris buffer (1 mL) was first incubated with ALP (100 U/L) at 37 °C for 30 min and then incubated with 10 mM GSH at 37 °C for another 10, 20, 30, 40, 50, and 60 min. The NIR FL spectra of these solutions at each time point were acquired on a HORIBA Jobin Yvon Fluoromax-4 fluorescence spectrometer, with excitation at 680 nm. For PA imaging, the incubation solutions at each time point were loaded into a fine bore polythene tube ([…], 1.27 mm OD). The tubes were then sealed and immersed in water. The PA images at both 700 and 750 nm were acquired on the Vevo 2100 LAZR system (FUJIFILM VisualSonics).

[2] = test system: HeLa MCTS; test: MCTS imaging and cytotoxicity (penetration, PI staining); type: cell-based, human; conditions: 10 μM 1 h, then 24 h
Protocol: Supplementary Figure 25. Flow cytometric analysis of HeLa cell death. (a) Gating strategy applied for flow cytometric analysis. (b) Representative flow cytometric analysis of HeLa cells by Annexin V-FITC/PI staining. HeLa cells were treated with PBS, CDDP, PtIVNPs or P-CyPt (20 μM) for 2 h, washed with cold PBS for three times, and then continued incubation in refresh blank DMEM medium for another 48 h. The cells were then stained with the Annexin V-FITC/PI kit, and analyzed by flow cytometry. One representative experiment out of two is shown.
Supplementary Figure 26. Evaluation of the penetration and cytotoxicity of PtIVNPs toward HeLa MCTS. MCTS were incubated with PtIVNPs (10 μM) for 1 h, then washed with PBS buffer for three times, followed by incubation for another 24 h.
The MCTs were then co-stained with PI. […]
μm. […] The fluorescence images of the MCTS were captured on a Leica TCS SP8 confocal laser scanning microscope, microscope (TCS SP8 STED 3X) with 10x/0.4 dry lens (Leica), and captured at RGB on a HyD detector (Leica Dmi8) under PI and Cy5.5 channels. […]
were sacrificed after 4 h. […] The fluorescence images of these organs and tumors were acquired with the IVIS Lumina XR III imaging system using a 660 nm excitation filter and a 750 ± 50 nm emission filter. […]

[3] = ALP 30 min then GSH 10 mM 10 min (time 40)
[4] = ALP 30 min then GSH 10 mM 20 min (time 50)
[5] = ALP 30 min then GSH 10 mM 30 min (time 60)
[6] = ALP 30 min then GSH 10 mM 40 min (time 70)
[7] = ALP 30 min then GSH 10 mM 50 min (time 80)
[8] = ALP 30 min then GSH 10 mM 60 min (time 90)

In the case of `CC1(C)C(/C=C/C2=C3Oc4cc(OP(=O)(O)O)c(Cl)cc4C=C3CCC2)=[N+](CCCNC(=O)[C@@H](Cc2ccccc2)NC(=O)[C@@H](Cc2ccccc2)NC(=O)CCC(=O)[O][Pt]([NH2])([NH2])([OH])([Cl])[Cl])c2ccccc21` [P-CyPt], the “normalized Abs. at 700 nm (Fig. 2j)” value [1, 3] is reported as 1.037, the “normalized Abs. at 750 nm (Fig. 2j)” value [1, 3] is reported as 0.6059 and the “normalized FL intensity at 710 nm (Fig. 2k)” value (shortened to “normalized FL intensity”) [1, 3] is reported as 15.4414. For the same compound, the “normalized PA intensity at 700 nm (Fig. 2l)” value [1, 3] was 0.9827, the “normalized PA intensity at 750 nm (Fig. 2l)” value [1, 3] was 0.8167 and the “normalized Abs. at 700 nm (Fig. 2j)” value [1, 4] was 1.054. For the same compound, the “normalized Abs. at 750 nm (Fig. 2j)” value [1, 4] was 0.4238, the “normalized FL intensity” value [1, 4] was 19.7308 and the “normalized PA intensity at 700 nm (Fig. 2l)” value [1, 4] was 0.9792. For the same compound, the “normalized PA intensity at 750 nm (Fig. 2l)” value [1, 4] was 0.6967, the “normalized Abs. at 700 nm (Fig. 2j)” value [1, 5] was 1.062 and the “normalized Abs. at 750 nm (Fig. 2j)” value [1, 5] was 0.3077. The “normalized FL intensity” value [1, 5] was 25.1768, the “normalized PA intensity at 700 nm (Fig. 2l)” value [1, 5] was 0.9821 and the “normalized PA intensity at 750 nm (Fig. 2l)” value [1, 5] was 0.5167. The “normalized Abs. at 700 nm (Fig. 2j)” value [1, 6] was 1.0719, the “normalized Abs. at 750 nm (Fig. 2j)” value [1, 6] was 0.2002 and the “normalized FL intensity” value [1, 6] was 29.4155. For the same compound, the “normalized PA intensity at 700 nm (Fig. 2l)” value [1, 6] was 0.9744, the “normalized PA intensity at 750 nm (Fig. 2l)” value [1, 6] was 0.3617 and the “normalized Abs. at 700 nm (Fig. 2j)” value [1, 7] was 1.0764. The “normalized Abs. at 750 nm (Fig. 2j)” value [1, 7] was 0.1155, the “normalized FL intensity” value [1, 7] was 34.4707 and the “normalized PA intensity at 700 nm (Fig. 2l)” value [1, 7] was 0.9821. For the same compound, the “normalized PA intensity at 750 nm (Fig. 2l)” value [1, 7] was 0.2567, the “normalized Abs. at 700 nm (Fig. 2j)” value [1, 8] was 1.084 and the “normalized Abs. at 750 nm (Fig. 2j)” value [1, 8] was 0.09482. For the same compound, the “normalized FL intensity” value [1, 8] was 35.3761, the “normalized PA intensity at 700 nm (Fig. 2l)” value [1, 8] was 1.001 and the “normalized PA intensity at 750 nm (Fig. 2l)” value [1, 8] was 0.1807. The “penetration / cell-kill depth in MCTS” value [2] was ~ 200 μm.
